# Test results as given in patent US5872139A, “Heterocyclymethylamino derivatives of cyclobutene-3,4-diones” (American Home Products Corporation, priority 1997, dated 1999).
# Test system: Isolated Rat Bladder Strips
# Experiment: Inhibition of contractions in isolated rat bladder strips (KCl-stimulated)
# Assay type: cell-based, Sprague-Dawley rats
# Settings: 30 μM, 15 mM KCl, read-out: Percent inhibition (I) at 30 μM
# Source text: The smooth muscle relaxing activity of the compounds of this invention was established in accordance with standard pharmaceutically accepted test procedures with representative compounds as follows:
# Sprague-Dawley rats (150-200 g) are rendered unconscious by CO2 asphyxiation and then euthanized by cervical dislocation. The bladder is removed into warm (37 deg. C.) physiological salt solution (PSS) of the following composition (mM): NaCl, 118.4; KCl, 4.7; CaCl2, 2.5; […]; NaHCO3, 24.9; KH2 PO4, 1.2; glucose, 11.1; EDTA, 0.023; gassed with […]; pH 7.4. The bladder is opened and then cut into strips 1-2 mm in width and 7-10 mm in length. The strips are subsequently suspended in a 10 mL tissue bath under an initial resting tension of 1.5 g. The strips are held in place by two surgical clips one of which is attached to a fixed hook while the other is attached to an isometric force transducer. […] The carbachol is then washed out and the tissue allowed to relax to its resting level of activity. Following a further 30 min period of recovery an additional 15 mM KCl are introduced into the tissue bath. This increase in KCl concentration results in a large increase in the amplitude of spontaneous contractions (and initiation of contractions in previously quiescent strips) superimposed upon a small increase in basal tone. Following stabilization of this enhanced level of contractile activity, incremental increases in the concentration of test compound or vehicle are introduced into the tissue bath. Contractile activity is measured for each compound or vehicle concentration during the last minute of a 30 minute challenge.
# The isometric force developed by the bladder strips is measured using a […] to elicit 50% inhibition of pre-drug contractile activity (IC50 concentration) and is calculated from this concentration-response curve.
row,SMILES,inhibition at 30 µM [%]
1,"CC(C)N(C)c1c(NCc2ccncc2)c(=O)c1=O [Example 7, 3-(Isopropyl-methyl-amino)-4-[(pyridin-4-ylmethyl)-amino]-cyclobut-3-ene-1,2-dione]",27.3 ± 7
2,"C[C@@H](Nc1c(NCc2cc3cc(C#N)ccc3o2)c(=O)c1=O)C(C)(C)C [Example 12, 2-{[3,4-Dioxo-2-(1,2,2-trimethyl-propylamino)-cyclobut-1-enylamino]-methyl}-benzofuran-5-carbonitrile]",5.5 ± 4
3,"CC(C)(Cc1ccccc1)Nc1c(NCc2cc3cc(C#N)ccc3o2)c(=O)c1=O [Example 14, 2-{[2-(1,1-Dimethyl-2-phenyl-ethylamino)-3,4-dioxo-cyclobut-1-enylamino]-methyl}-benzofuran-5-carbonitrile]",31.9 ± 6.4
4,"CCC(C)(C)Nc1c(NCc2cc3cc([N+](=O)[O-])ccc3o2)c(=O)c1=O [Example 9, 3-(1,1-Dimethyl-propylamino)-4-[(5-nitro-benzofuran-2-ylmethyl)-amino]-cyclobut-3-ene-1,2-dione]",22.2 ± 7.4
5,"CC(C)(C)Nc1c(NCc2cc3cc([N+](=O)[O-])ccc3o2)c(=O)c1=O [Example 10, 3-tert-butylamino-4-[(5-nitro-benzofuran-2-ylmethyl)-amino]-cyclobut-3-ene-1,2-dione]",11.5 ± 3.2
6,"CC(C)(C)Nc1c(NCc2cc3cc(C#N)ccc3o2)c(=O)c1=O [Example 13, 2-[(2-tert-butylamino-3,4-dioxo-cyclobut-1-enylamino)-methyl]-benzofuran-5-carbonitrile]",19.9 ± 8.5

# Same assay, conditions: 0.5 h, 30 μM, 15 mM KCl, read-out: Percent contraction (C) at 30 μM
row,SMILES,activity at 30 µM [%]
1,"C[C@@H](Nc1c(NCc2cc3cc([N+](=O)[O-])ccc3o2)c(=O)c1=O)C(C)(C)C [Example 8, 3-[(5-nitro-benzofuran-2-ylmethyl)-amino]-4-(1,2,2-trimethylpropylamino)-cyclobut-3-ene-1,2-dione]",8.5 ± 1.4

# Same assay, conditions: 0.5 h, 15 mM KCl, 30 minute challenge
row,SMILES,IC50 [nM]
1,"C[C@@H](Nc1c(NCc2cc3cc(C#N)ccc3o2)c(=O)c1=O)C(C)(C)C [Example 12, 2-{[3,4-Dioxo-2-(1,2,2-trimethyl-propylamino)-cyclobut-1-enylamino]-methyl}-benzofuran-5-carbonitrile]",3750 ± 1440
2,"CC(Nc1c(NCc2ccncc2)c(=O)c1=O)C(C)(C)C (stereo not drawn) [Example 15, 3-[(Pyridin-4-ylmethyl)-amino]-4-(1,2,2-trimethyl-propylamino)-cyclobut-3-ene-1,2-dione]",2450 ± 990

# Second part, the compound after the results:
row,IC50 [nM],SMILES
1,11400 ± 4300,"CC(C)(C)Nc1c(NCc2ccccn2)c(=O)c1=O [Example 6, 3-tert-Butylamino-4-[(pyridin-2-ylmethyl)amino]-cyclobut-3-ene-1,2-dione]"
2,1250 ± 340,"CCC(C)(C)Nc1c(NCc2ccccn2)c(=O)c1=O [Example 3, 3-(1,1-Dimethylpropylamino)-4-[(pyridin-2-ylmethyl)amino]-cyclobut-3-ene-1,2-dione]"
3,1250 ± 390,CCC(C)(C)Nc1c(NCc2cccnc2)c(=O)c1=O [Example 2]
4,2630 ± 220,"CC(C)(C)Nc1c(NCc2cccnc2)c(=O)c1=O [Example 5, 3-tert-Butylamino-4-[(pyridin-3-ylmethyl)amino]-cyclobut-3-ene-1,2-dione]"
5,1300 ± 630,"CCC(C)(C)Nc1c(NCc2oc3ccc(C#N)cc3c2Cl)c(=O)c1=O [Example 16, 2-{[2-(1,1-Dimethyl-propylamino)-3,4-dioxo-cyclobut-1-enylamino]-methyl}-3-chloro-benzofuran-5-carbonitrile]"
6,3000 ± 200,"CC(C)(C)Nc1c(NCc2ccncc2)c(=O)c1=O [Example 4, 3-tert-Butylamino-4-[(pyridin-4-ylmethyl)amino]-cyclobut-3-ene-1,2-dione]"
7,420 ± 60,"CCC(C)(C)Nc1c(NCc2ccncc2)c(=O)c1=O [Example 1, 3-(1,1-Dimethylpropylamino)-4-[(pyridin-4-ylmethyl)-amino]-cyclobut-3-ene-1,2-dione]"
8,1560 ± 160,"CCC(C)(C)Nc1c(NCc2cc3cc(C#N)ccc3o2)c(=O)c1=O [Example 11, 2-{[2-(1,1-Dimethyl-propylamino)-3,4-dioxo-cyclobut-1-enylamino]-methyl}-benzofuran-5-carbonitrile]"

# Test system: hypertrophied bladder (detrussor) smooth muscle
# Experiment: Inhibition of spontaneous contractions in vivo, hypertrophied rat bladder model (conscious rats, cystometry)
# Parameters: species or system female Sprague-Dawley rats
# Settings: 10 mg/kg p.o., 3 animals, conscious female rats, second cystometry one hour after dosing
# Procedure: In addition, we tested the ability of the compound of Example 1, as representative of the other compounds of this invention, to inhibit the hyperactivity of hypertrophied bladder (detrussor) smooth muscle in conscious female rats with hypertrophied bladders and thereby alleviate urinary incontinence according to the protocol described by Malmgrem et al., J. Urol. 142:1134, 1989.
# Female Sprague-Dawley rats, ranging in weight from 190-210 g are used. Up to 25 animals are prepared each time. After development of bladder hypertrophy 4-8 animals are used per test.
# Compounds are dissolved in PEG-200 and administered by gastric gavage or intraveneously in a volume of 5 ml/kg. For primary screening all drugs are administered at the arbitrary dose of 10 mg/kg p.o. to groups of 4 rats.
# The animals are anesthetized with halothane. […]
# The following urodynamic variables are recorded:
# The mean value of each variable is calculated before and after compound administration. For each compound the changes in the variables measured are compared to the values obtained before treatment and expressed as percent inhibition. The data are also subjected to 2-way analysis of variance to determine significant (p<0.05) changes in the variable measured.
row,SMILES,% Red (F): percent reduction in the total number of spontaneous contractions in the hypertrophied rat bladder model [%]
1,"CCC(C)(C)Nc1c(NCc2ccncc2)c(=O)c1=O [Example 1, 3-(1,1-Dimethylpropylamino)-4-[(pyridin-4-ylmethyl)-amino]-cyclobut-3-ene-1,2-dione]",-8 ± 4
